# Target: T1, Human KLK1 (Homo sapiens, UniProt P06870)
# T1 construct: purchased Callbiochem (Calbiochem)
# Assay: Determination of the IC50 for KLK1 (fluorogenic substrate H-DVal-Leu-Arg-AFC)
# Format: biochemical
# Details: 37° C.
# In short: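 hKLK1 + H-DVal-Leu-Arg-AFC, 37° C, varied cpd conc. Initial rate by A410 change → residual activity → IC50.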
# T1 sequence (P06870 25-262): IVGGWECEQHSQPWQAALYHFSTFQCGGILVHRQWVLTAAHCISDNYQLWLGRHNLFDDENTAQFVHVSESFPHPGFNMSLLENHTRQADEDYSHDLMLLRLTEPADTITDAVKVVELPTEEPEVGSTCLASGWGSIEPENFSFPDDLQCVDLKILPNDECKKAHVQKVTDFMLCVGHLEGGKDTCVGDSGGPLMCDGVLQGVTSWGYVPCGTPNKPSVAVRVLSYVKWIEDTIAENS
row,IC50 [nM],SMILES
1,78.3,"Nc1ccc(CNC(=O)[C@H](Cc2ccc(F)c(F)c2)NC(=O)CN2CCCc3ccccc32)cn1 [Example 173, (S)—N-(6-Amino-pyridin-3-ylmethyl)-3-(3,4-difluoro-phenyl)-2-(2-3,4-dihydro-2H-quinolin-1-yl-acetylamino)-propionamide]"
2,90,"CN(CC(=O)N[C@@H](Cc1ccc(F)c(F)c1)C(=O)NCc1ccc(N)nc1)c1ccccc1 [Example 174, (S)—N-(6-Amino-pyridin-3-ylmethyl)-3-(3,4-difluoro-phenyl)-2-[2-(methyl-phenyl-amino)-acetylamino]-propionamide]"
3,2,"CC(C)N(C)[C@H](C)C(=O)N[C@@H](Cc1ccc(F)c(F)c1)C(=O)NCc1ccc(N)nc1 [Example 175, (R)—N-[(S)-1-[(6-Amino-pyridin-3-ylmethyl)-carbamoyl]-2-(3,4-difluoro-phenyl)-ethyl]-2-(isopropyl-methyl-amino)-propionamide]"
4,1.9,"CC(C)CN(C)[C@@H](C)C(=O)N[C@@H](Cc1ccc(F)c(F)c1)C(=O)NCc1ccc(N)nc1 [Example 177, (S)—N-[(S)-1-[(6-Amino-pyridin-3-ylmethyl)-carbamoyl]-2-(3,4-difluoro-phenyl)-ethyl]-2-(isobutyl-methyl-amino)-propionamide]"
5,15.9,"CCC(C)[C@H](C(=O)N[C@@H](Cc1ccc(F)c(F)c1)C(=O)NCc1ccc(N)nc1)N(C)C (stereo partly drawn) [Example 178, (R)-2-Dimethylamino-3-methyl-pentanoic acid [(S)-1-[(6-amino-pyridin-3-ylmethyl)-carbamoyl]-2-(3,4-difluoro-phenyl)-ethyl]-amide]"
6,3.01,"CN(C)[C@@H](C(=O)N[C@@H](Cc1ccc(F)c(F)c1)C(=O)NCc1ccc(N)nc1)C(C)(C)C [Example 179, (R)—N-[(S)-1-[(6-Amino-pyridin-3-ylmethyl)-carbamoyl]-2-(3,4-difluoro-phenyl)-ethyl]-2-dimethylamino-3,3-dimethyl-butyramide]"
7,7.9,"CC(C)N(C)[C@H](C)C(=O)N[C@@H](Cc1ccc(F)cc1)C(=O)NCc1ccc(N)nc1 [Example 180, (R)—N-[(S)-1-[(6-Amino-pyridin-3-ylmethyl)-carbamoyl]-2-(4-fluoro-phenyl)-ethyl]-2-(isopropyl-methyl-amino)-propionamide]"
8,1.1,"CC(C)N(C)[C@@H](C)C(=O)N[C@@H](Cc1ccc(F)cc1)C(=O)NCc1ccc(N)nc1 [Example 181, (S)—N-[(S)-1-[(6-Amino-pyridin-3-ylmethyl)-carbamoyl]-2-(4-fluoro-phenyl)-ethyl]-2-(isopropyl-methyl-amino)-propionamide]"
9,21.2,"CCC(C)[C@H](C(=O)N[C@@H](Cc1ccc(F)cc1)C(=O)NCc1ccc(N)nc1)N(C)C (stereo partly drawn) [Example 182, (R)-2-Dimethylamino-3-methyl-pentanoic acid [(S)-1-[(6-amino-pyridin-3-ylmethyl)-carbamoyl]-2-(4-fluoro-phenyl)-ethyl]-amide]"
10,5.1,"CN(C)[C@@H](C(=O)N[C@@H](Cc1ccc(F)cc1)C(=O)NCc1ccc(N)nc1)C(C)(C)C [Example 183, (R)—N-[(S)-1-[(6-Amino-pyridin-3-ylmethyl)-carbamoyl]-2-(4-fluoro-phenyl)-ethyl]-2-dimethylamino-3,3-dimethyl-butyramide]"
11,44.4,"CC(C)N[C@H](Cc1ccccc1)C(=O)N[C@@H](Cc1ccc(F)c(F)c1)C(=O)NCc1ccc(N)nc1 [Example 184, (R)—N-[(S)-1-[(6-Amino-pyridin-3-ylmethyl)-carbamoyl]-2-(3,4-difluoro-phenyl)-ethyl]-2-isopropylamino-3-phenyl-propionamide]"
12,14.5,"CN(C)[C@H](Cc1ccccc1)C(=O)N[C@@H](Cc1ccc(F)c(F)c1)C(=O)NCc1ccc(N)nc1 [Example 185, (R)—N-[(S)-1-[(6-Amino-pyridin-3-ylmethyl)-carbamoyl]-2-(3,4-difluoro-phenyl)-ethyl]-2-dimethylamino-3-phenyl-propionamide]"
13,0.81,"Cc1nc(N)ccc1CNC(=O)[C@H](CC1CCCC2CCCCC21)NC(=O)[C@H](N)C(C)C (stereo partly drawn) [Example 186, (R)-2-Amino-N-[(S)-1-[(6-amino-2-methyl-pyridin-3-ylmethyl)-carbamoyl]-2-(decahydro-naphthalen-1-yl)-ethyl]-3-methyl-butyramide]"
14,0.71,"CCC(C)[C@@H](N)C(=O)N[C@@H](CC1CCCC2CCCCC21)C(=O)NCc1ccc(N)nc1C (stereo partly drawn) [Example 187, (R)-2-Amino-3-methyl-pentanoic acid [(S)-1-[(6-amino-2-methyl-pyridin-3-ylmethyl)-carbamoyl]-2-(decahydro-naphthalen-1-yl)-ethyl]-amide]"
15,1.2,"CCC(C)[C@@H](NC)C(=O)N[C@H](Cc1ccc(Cl)c(Cl)c1)C(=O)NCc1ccc(N)nc1C (stereo partly drawn) [Example 188, (2R)-3-Methyl-2-methylamino-pentanoic acid [(R)-1-[(6-amino-2-methyl-pyridin-3-ylmethyl)-carbamoyl]-2-(3,4-dichloro-phenyl)-ethyl]-amide]"
16,4.2,"Cc1nc(N)ccc1CNC(=O)[C@@H](Cc1ccc(Cl)c(Cl)c1)NC(=O)[C@H]1CCCN1 [Example 189, (R)-Pyrrolidine-2-carboxylic acid [(R)-1-[(6-amino-2-methyl-pyridin-3-ylmethyl)-carbamoyl]-2-(3,4-dichloro-phenyl)-ethyl]-amide]"
17,1.8,"Cc1nc(N)ccc1CNC(=O)[C@@H](Cc1ccc(Cl)c(Cl)c1)NC(=O)[C@H]1CCCN1C [Example 190, (R)-1-Methyl-pyrrolidine-2-carboxylic acid [(R)-1-[(6-amino-2-methyl-pyridin-3-ylmethyl)-carbamoyl]-2-(3,4-dichloro-phenyl)-ethyl]-amide]"
18,33.3,"Cc1nc(N)ccc1CNC(=O)[C@@H](Cc1ccc(Cl)c(Cl)c1)NC(=O)[C@H]1CSCN1 [Example 191, (S)-Thiazolidine-4-carboxylic acid [(R)-1-[(6-amino-2-methyl-pyridin-3-ylmethyl)-carbamoyl]-2-(3,4-dichloro-phenyl)-ethyl]-amide]"
19,60.4,"Cc1nc(N)ccc1CNC(=O)[C@H](Cc1ccc(Cl)c(Cl)c1)NC(=O)[C@H]1CC(F)(F)CN1 [Example 192, (R)-4,4-Difluoro-pyrrolidine-2-carboxylic acid [(S)-1-[(6-amino-2-methyl-pyridin-3-ylmethyl)-carbamoyl]-2-(3,4-dichloro-phenyl)-ethyl]-amide]"
20,10.9,"CN[C@@H](Cc1ccccc1)C(=O)N[C@H](Cc1ccc(Cl)c(Cl)c1)C(=O)NCc1ccc(N)nc1C [Example 193, (S)—N-[(R)-1-[(6-Amino-2-methyl-pyridin-3-ylmethyl)-carbamoyl]-2-(3,4-dichloro-phenyl)-ethyl]-2-methylamino-3-phenyl-propionamide]"
21,5.1,"Cc1nc(N)ccc1CNC(=O)[C@H](Cc1ccc(Cl)c(Cl)c1)NC(=O)[C@H](N)Cc1ccc(F)cc1 [Example 194, (R)-2-Amino-N-[(S)-1-[(6-amino-2-methyl-pyridin-3-ylmethyl)-carbamoyl]-2-(3,4-dichloro-phenyl)-ethyl]-3-(4-fluoro-phenyl)-propionamide]"
22,5.4,"Cc1nc(N)ccc1CNC(=O)[C@H](Cc1ccc(Cl)c(Cl)c1)NC(=O)[C@H](N)Cc1ccc(Cl)cc1 [Example 195, (R)-2-Amino-N-[(S)-1-[(6-amino-2-methyl-pyridin-3-ylmethyl)-carbamoyl]-2-(3,4-dichloro-phenyl)-ethyl]-3-(4-chloro-phenyl)-propionamide]"
23,23.2,"Cc1nc(N)ccc1CNC(=O)[C@H](Cc1ccc(Cl)c(Cl)c1)NC(=O)[C@H](N)Cc1cccnc1 [Example 196, (R)-2-Amino-N-[(S)-1-[(6-amino-2-methyl-pyridin-3-ylmethyl)-carbamoyl]-2-(3,4-dichloro-phenyl)-ethyl]-3-pyridin-3-yl-propionamide]"
24,84.6,"Cc1nc(N)ccc1CNC(=O)[C@@H](Cc1ccc(Cl)c(Cl)c1)NC(=O)[C@@H](N)c1ccccc1 [Example 197, (R)—N-(6-Amino-2-methyl-pyridin-3-ylmethyl)-2-((S)-2-amino-2-phenyl-acetylamino)-3-(3,4-dichloro-phenyl)-propionamide]"
25,28,"Cc1nc(N)ccc1CNC(=O)[C@H](Cc1ccc(Cl)c(Cl)c1)NC(=O)[C@H](N)C1CCCCC1 [Example 198, (S)-2-((R)-2-Amino-2-cyclohexyl-acetylamino)-N-(6-amino-2-methyl-pyridin-3-ylmethyl)-3-(3,4-dichloro-phenyl)-propionamide]"
26,1.4,"Cc1nc(N)ccc1CNC(=O)[C@H](Cc1ccc(Cl)c(Cl)c1)NC(=O)[C@H](N)C(C)(C)C [Example 199, (R)-2-Amino-N-[(S)-1-[(6-amino-2-methyl-pyridin-3-ylmethyl)-carbamoyl]-2-(3,4-dichloro-phenyl)-ethyl]-3,3-dimethyl-butyramide]"
27,22.1,"Cc1nc(N)ccc1CNC(=O)[C@H](Cc1ccc(Cl)c(Cl)c1)NC(=O)[C@H](N)CC1CCCCC1 [Example 200, (R)-2-Amino-N-[(S)-1-[(6-amino-2-methyl-pyridin-3-ylmethyl)-carbamoyl]-2-(3,4-dichloro-phenyl)-ethyl]-3-cyclohexyl-propionamide]"
28,1.3,"Cc1nc(N)ccc1CNC(=O)[C@H](Cc1ccc(Cl)c(Cl)c1)NC(=O)[C@H]1CCCCN1 [Example 201, (R)-Piperidine-2-carboxylic acid [(S)-1-[(6-amino-2-methyl-pyridin-3-ylmethyl)-carbamoyl]-2-(3,4-dichloro-phenyl)-ethyl]-amide]"
29,22.5,"Cc1nc(N)ccc1CNC(=O)[C@H](Cc1ccc(Cl)c(Cl)c1)NC(=O)[C@H]1CCc2ccccc2N1 [Example 202, (R)-1,2,3,4-Tetrahydro-quinoline-2-carboxylic acid [(S)-1-[(6-amino-2-methyl-pyridin-3-ylmethyl)-carbamoyl]-2-(3,4-dichloro-phenyl)-ethyl]-amide]"
30,4.5,"CCC(C)[C@@H](NC)C(=O)N[C@@H](Cc1cccc2ccccc12)C(=O)NCc1ccc(N)nc1C (stereo partly drawn) [Example 203, (R)-3-Methyl-2-methylamino-pentanoic acid {(S)-1-[(6-amino-2-methyl-pyridin-3-ylmethyl)-carbamoyl]-2-naphthalen-1-yl-ethyl}-amide]"

# Reference: patent US20100076015A1, “Aminopyridine Derivatives” (VANTIA LIMITED, priority 2008, published 2010)
